In ChEMBL document CHEMBL3862032, “Design, Synthesis, and Cytotoxic Evaluation of Novel Tubulysin Analogues as ADC Payloads” (ACS Med Chem Lett, 2016):
pIC50: −log10 of the molar value.

Key:
[1] = Cytotoxicity against human MDA-MB-361/DYT2 cells assessed as decrease in cell viability after 4 days by MTS assay; assay type: functional, cell-based; settings: MDA-MB-361, 96 h
[2] = Cytotoxicity against human KB 8.5 cells expressing MDR1 assessed as decrease in cell viability after 4 days by MTS assay; assay type: functional, cell-based; settings: KB 8.5, 96 h
[3] = Cytotoxicity against MDR1 deficient human KB cells assessed as decrease in cell viability after 4 days by MTS assay; assay type: functional, cell-based; settings: 96 h
[4] = Cytotoxicity against human NCI-N87 cells assessed as decrease in cell viability after 4 days by MTS assay; assay type: functional, cell-based; settings: NCI-N87, 96 h
KB = test: Resistance ratio of IC50 for human KB 8.5 cells expressing MDR1 to IC50 for MDR1 deficient human KB cells; assay type: functional

Row | SMILES | pIC50 [1] | pIC50 [2] | pIC50 [3] | pIC50 [4] | Ratio IC50 (KB)
1 | CC[C@H](C)[C@H](NC(=O)[C@H]1CCCCN1C)C(=O)N(C)[C@H](C[C@@H](OC(C)=O)c1nc(C(=O)N[C@H](CNS(C)(=O)=O)Cc2ccccc2)cs1)C(C)C | 9.57 | 7.50 | 9.05 | 9.33 | 36
2 | CC[C@H](C)[C@H](NC(=O)[C@@]1(C)CCCN1C)C(=O)N(C)[C@H](C[C@@H](OC(C)=O)c1nc(C(=O)N[C@@H](Cc2ccccc2)C[C@H](C)C(=O)O)cs1)C(C)C | 10.15 | 8.99 | 9.96 | 9.89 | 9
3 | CC[C@H](C)[C@H](NC(=O)[C@H]1CCCCN1C)C(=O)N(C)[C@H](C[C@@H](OC(C)=O)c1nc(C(=O)N[C@@H](Cc2ccccc2)C[C@H](C)C(=O)OC)cs1)C(C)C | 9.66 | 9.15 | 9.66 | 9.49 | 3
4 | CC[C@H](C)[C@H](NC(=O)[C@@]1(C)CCCN1C)C(=O)N(C)[C@H](C[C@@H](O)c1nc(C(=O)N[C@@H](Cc2ccc(N)cc2)C[C@H](C)C(=O)O)cs1)C(C)C | < 6.00 | < 6.00 | 6.11 | < 6.00 | 
5 | CC[C@H](C)[C@H](NC(=O)[C@@]1(C)CCCN1C)C(=O)N(C)[C@H](C[C@@H](OC(C)=O)c1nc(C(=O)N[C@@H](Cc2ccccc2)[C@@H](O)C(=O)OC)cs1)C(C)C | 8.22 | 7.55 | 8.20 | 8.00 | 5
6 | CC[C@H](C)[C@H](NC(=O)[C@@]1(C)CCCN1)C(=O)N(C)[C@H](C[C@@H](OC(C)=O)c1nc(C(=O)N[C@@H](Cc2ccccc2)C[C@H](C)C(=O)OC)cs1)C(C)C | 7.62 | 6.75 | 7.73 | 7.23 | 9
7 | CC[C@H](C)[C@H](NC(=O)[C@@]1(C)CCCN1C)C(=O)N(C)[C@H](C[C@@H](OC(C)=O)c1nc(C(=O)N[C@@H](Cc2ccccc2)c2nccs2)cs1)C(C)C | 7.66 | 6.98 | 7.42 | 7.53 | 3
8 | CC[C@H](C)[C@H](NC(=O)C(C)(C)N(C)C)C(=O)N(C)[C@H](C[C@@H](OC(C)=O)c1nc(C(=O)N[C@@H](Cc2ccccc2)C[C@H](C)C(=O)OC)cs1)C(C)C | 8.47 | 7.27 | 8.33 | 8.01 | 11
9 | CC[C@H](C)[C@H](NC(=O)[C@H]1CCCCN1C)C(=O)N(C)[C@H](C[C@@H](OC(C)=O)c1nc(C(=O)N[C@@H](Cc2ccccc2)C[C@H](C)C(=O)O)cs1)C(C)C | 9.89 | 8.96 | 9.48 | 9.34 | 3
10 | CC[C@H](C)[C@H](NC(=O)[C@H]1CCCN1C)C(=O)N(C)[C@H](C[C@@H](OC(C)=O)c1nc(C(=O)N[C@@H](Cc2ccccc2)C[C@H](C)C(=O)OC)cs1)C(C)C | 9.17 | 8.10 | 8.90 | 8.54 | 6
11 | CC[C@H](C)[C@H](NC(=O)[C@@]1(C)CCCN1C)C(=O)N(C)[C@H](C[C@@H](OC(C)=O)c1nc(C(=O)N[C@@H](Cc2ccccc2)C[C@H](C)C(=O)OC)cs1)C(C)C | 9.35 | 8.26 | 8.98 | 9.05 | 5
12 | CC[C@H](C)[C@H](NC(=O)[C@@]1(C)CCCN1C)C(=O)N(C)[C@H](C[C@@H](OC(C)=O)c1nc(C(=O)N[C@H](CNS(C)(=O)=O)Cc2ccccc2)cs1)C(C)C | 8.31 | 7.03 | 8.27 | 8.03 | 18
13 | CC[C@H](C)[C@H](NC(=O)[C@@]1(C)CCCN1C)C(=O)N(C)[C@H](C[C@@H](OC(C)=O)c1nc(C(=O)N[C@@H](Cc2ccc(N)cc2)C[C@H](C)C(=O)O)cs1)C(C)C | 9.05 | 8.56 | 9.30 | 8.95 | 5
14 | CCNC(=O)O[C@H](C[C@H](C(C)C)N(C)C(=O)[C@@H](NC(=O)[C@@]1(C)CCCN1C)[C@@H](C)CC)c1nc(C(=O)N[C@@H](Cc2ccc(N)cc2)C[C@H](C)C(=O)O)cs1 | 8.71 | 8.34 | 9.11 | 8.72 | 6
15 | CC[C@H](C)[C@H](NC(=O)[C@@]1(C)CCCN1C)C(=O)N(C)[C@H](C[C@@H](OC(C)=O)c1nc(C(=O)NCCc2cscn2)cs1)C(C)C | 7.48 | 6.70 | 7.06 | 7.21 | 2
16 | CC[C@H](C)[C@H](NC(=O)[C@H]1CCCCN1C)C(=O)N(C)[C@H](C[C@@H](OC(C)=O)c1nc(C(=O)N[C@@H](Cc2ccccc2)[C@@H](O)C(=O)OC)cs1)C(C)C | 9.57 | 7.87 | 8.92 | 9.00 | 11
17 | CC[C@H](C)[C@H](NC(=O)[C@@]1(C)CCCN1C)C(=O)N(C)[C@H](C[C@@H](OC(C)=O)c1nc(C(=O)NCCn2nnc3ccccc32)cs1)C(C)C | 8.04 | 7.33 | 7.94 | 7.93 | 4
18 | CC[C@H](C)[C@H](NC(=O)[C@H]1CCCCN1C)C(=O)N(C)[C@H](C[C@@H](OC(C)=O)c1nc(C(=O)N[C@@H](Cc2ccccc2)C(=O)N2CCCCC2)cs1)C(C)C | 8.20 | 7.70 | 8.43 | 8.17 | 5
19 | CC[C@H](C)[C@H](NC(=O)[C@H]1CCCCN1C)C(=O)N(C)[C@H](C[C@@H](OC(C)=O)c1nc(C(=O)NCCn2nnc3ccccc32)cs1)C(C)C | 9.08 | 7.81 | 8.84 | 8.91 | 11
20 | CC[C@H](C)[C@H](NC(=O)[C@H]1CCCCN1)C(=O)N(C)[C@H](C[C@@H](OC(C)=O)c1nc(C(=O)N[C@@H](Cc2ccccc2)C[C@H](C)C(=O)OC)cs1)C(C)C | 8.77 | 6.85 | 8.59 | 8.11 | 54
21 | CC[C@H](C)[C@H](NC(=O)[C@H]1CCCCN1C)C(=O)N(C)[C@H](C[C@@H](OC(C)=O)c1nc(C(=O)N[C@@H](Cc2ccccc2)CN2CCOCC2)cs1)C(C)C | 9.51 | 8.26 | 8.99 | 9.31 | 5
22 | CC[C@H](C)[C@H](NC(=O)[C@H]1CCCCN1C)C(=O)N(C)[C@H](C[C@@H](OC(C)=O)c1nc(C(=O)N[C@@H](Cc2ccccc2)c2nccs2)cs1)C(C)C | 9.02 | 7.87 | 8.45 | 8.52 | 4
23 | CC[C@H](C)[C@H](NC(=O)[C@H]1CCCCN1C)C(=O)N(C)[C@H](C[C@@H](OC(C)=O)c1nc(C(=O)NCCc2cscn2)cs1)C(C)C | 8.19 | 7.76 | 8.43 | 8.05 | 5
24 | CC[C@H](C)[C@H](NC(=O)[C@H](NC)C(C)C)C(=O)N(C)[C@H](C[C@@H](OC(C)=O)c1nc(C(=O)N[C@@H](Cc2ccccc2)C[C@H](C)C(=O)OC)cs1)C(C)C | 8.97 | 7.47 | 8.75 | 9.05 | 19
25 | CC[C@H](C)[C@H](NC(=O)[C@@H]1C[C@@H](O)CN1C)C(=O)N(C)[C@H](C[C@@H](OC(C)=O)c1nc(C(=O)N[C@@H](Cc2ccccc2)C[C@H](C)C(=O)OC)cs1)C(C)C | 7.57 | 6.10 | 7.65 | 6.97 | 35
26 | CC[C@H](C)[C@H](NC(=O)[C@@]1(C)CCCN1C)C(=O)N(C)[C@H](C[C@@H](OC(C)=O)c1nc(C(=O)NC(CO)Cc2ccccc2)cs1)C(C)C (mixture of isomers) | 7.78 | 7.16 | 7.74 | 7.54 | 4
27 | CC[C@H](C)[C@H](NC(=O)[C@@]1(C)CCCN1C)C(=O)N(C)[C@H](C[C@@H](OC(C)=O)c1nc(C(=O)N[C@@H](Cc2ccccc2)C(O)c2nccs2)cs1)C(C)C (mixture of isomers) | 8.19 | 7.40 | 8.06 | 7.95 | 5
